The subject of assay [1] is HCT116 cells. As to the kind of experiment: dNTP amount in treated cells. In kind it is cell-based, human. The text has this:
The effect of DHS on dNTP synthesis was investigated by measuring the amount of dNTPs in DHS-treated HCT116 cells.

The subject of assay [2] is And-1 protein. In words: And-1 protein level by Western blot. It counts as cell-based. As to conditions: U2OS and HCT116 cells. The method, then:
Western blot analysis. Compound-treated cells were harvested and lysed. Protein extracts were subjected to electrophoresis in a SDS-polyacrylamide gel. The resolved proteins were transferred onto polyvinylidene difluoride membranes (Amersham Biosciences, Piscataway, N.J., US). After the blocking step, membranes were incubated with primary IgG antibodies, washed, and then incubated with horseradish peroxidase-conjugated anti-rabbit IgG or anti-mouse IgG secondary antibodies. Western blot signals were visualized by chemiluminescence using SuperSignal West Pico chemiluminescence reagent (Pierce, Rockford, Ill., US).
The effect of DHS treatment on And-1, RRM1, and RRM2 expression was investigated.
(Immunoblotting shows a protein as a band on a membrane.)

The test system of assay [3] is HCT116 cells. In words: DNA fiber assay. In kind it is cell-based, human. The method, then: Thus, the effect of DHS on DNA replication and cell cycle progression was investigated. Replication fork speeds were examined by DNA fiber assay (FIG. 7A). Briefly, DHS, hydroxyurea (Hu), or Aphidicolin (Aph) was added to HCT116 cells 2 hours prior to labeling of DNA with iododeoxyuridine (IdU) and/or chlorodeoxyuridine (CldU).

For assay [4], the system named is U2OS. In words: In vitro cytotoxicity (SRB assay), U2OS. As to conditions: Homo sapiens, 72 hours. It counts as cell-based. The method, then:
Cell lines and cell culture. HCT116, U205, PANC-1, MDA-231 cell lines were purchased from the American Type Culture Collection (Rockville, Md., US). Cells were cultured in the DMEM medium (Lonza, Basel, Switzerland) containing 10% fetal bovine serum (Gibco, Grand Island, N.Y., US), 100 Units/ml penicillin, 100 Units/mL streptomycin, […] L-glutamine (Gibco, Grand Island, N.Y., US) at 37° C. in a humidified atmosphere with 5% CO2.
In vitro cytotoxicity assays. […] SRB assay (Vichai and Kirtikara, 2006) was performed and the absorbance at 510 nm was read with a plate reader. The proliferation rate was calculated according to the Manufacturer's instruction. The IC50 value for each compound was determined from dose-effect relationship using the CompuSyn software (version 1.0.1; CompuSyn, Inc, Paramus, N.J.) (Chou, 2006). Cell proliferating doubling time was monitored over a period of 72 hours.
(In general: Sulforhodamine B stains cellular protein and so reports cell mass.)

Assay [5] has as its system RPK-9 cells. In words: Combination DHS and gemcitabine, CI, RPK-9 cells. In kind it is cell-based, human. As to conditions: RPK-9, in vitro, 10 μM DHS. The method, then:
In vitro cytotoxicity assays. Cells growing in the Log phase were treated with various compounds at different concentrations (generally 0.137 to 100 μM) for 72 hours at 37° C. SRB assay (Vichai and Kirtikara, 2006) was performed and the absorbance at 510 nm was read with a plate reader. The proliferation rate was calculated according to the Manufacturer's instruction. The IC50 value for each compound was determined from dose-effect relationship using the CompuSyn software (version 1.0.1; CompuSyn, Inc, Paramus, N.J.) (Chou, 2006). Cell proliferating doubling time was monitored over a period of 72 hours.
Next, the effect of combined treatment with DHS and gemcitabine on pancreatic tumor cells was investigated.

The source of these data is US11160767B2, “4,4′-trans-dihydroxystilbene for use in treating cancer” (The George Washington University, a Congressionally …, priority 2017, dated 2021).

The IC50 is the concentration needed to halve the response being measured. A low value points to higher potency. As to `Oc1ccc(/C=C/c2ccc(O)cc2)cc1` [DHS, 4,4′-trans-dihydroxystilbene], the dNTP synthesis result in assay [1] was “inhibited synthesis of dATP, dCTP, dGTP, and dTTP”. Moreover, the And-1 protein level result in assay [2] was “caused down-regulation of And-1 protein”. The “Rate of replication fork progression (folk speed)” value in assay [3] is on record as “significantly reduced”. The DNA replication stalling entry in assay [3] (added 2 hours prior to labeling) was “dramatically caused DNA replication stalling”. This compound also had an IC50 in assay [4] of 1230 ± 730 nM. Besides, the Resensitisation to gemcitabine entry in assay [5] is listed as “resensitized the gemcitabine-resistant pancreatic cancer line, RPK-9, to gemcitabine”.
